Measured values taken from patent US10231954B2, “Neurodegenerative therapies” (LYTIX BIOPHARMA AS, priority 2014, dated 2019).

How the values were obtained:
Conditions in all cases: 100 micromolar inhibitor concentration; 100 is no change
MKK6 = molecular target: T1, MKK6 (Homo sapiens, UniProt P52564); assay: Kinase profiling MKK6; type: biochemical
T1 sequence (P52564 1-334): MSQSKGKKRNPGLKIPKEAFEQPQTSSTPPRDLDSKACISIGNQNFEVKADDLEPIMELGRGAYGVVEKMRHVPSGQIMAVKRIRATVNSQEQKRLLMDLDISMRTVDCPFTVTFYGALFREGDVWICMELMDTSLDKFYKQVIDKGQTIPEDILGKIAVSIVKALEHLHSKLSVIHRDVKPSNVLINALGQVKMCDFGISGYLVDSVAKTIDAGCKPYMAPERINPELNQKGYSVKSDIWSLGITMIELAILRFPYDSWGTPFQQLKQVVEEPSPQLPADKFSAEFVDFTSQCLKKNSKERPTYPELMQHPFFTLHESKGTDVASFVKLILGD
From the text: (§1) Any value less that 25 is considered to be highly significant inhibition.

ERK2 = ERK2 (Homo sapiens, UniProt P28482); assay: Kinase profiling ERK2; type: biochemical
From the text: as §1

JNK1 = JNK1 (Homo sapiens, UniProt P45983); assay: Kinase profiling JNK1; type: biochemical
From the text: as §1

JNK2 = JNK2 (Homo sapiens, UniProt P45984); assay: Kinase profiling JNK2; type: biochemical
From the text: as §1

p38d MAPK = molecular target: T2, p38d MAPK (Homo sapiens, UniProt O15264); assay: Kinase profiling p38d MAPK; type: biochemical
T2 sequence (O15264 1-365): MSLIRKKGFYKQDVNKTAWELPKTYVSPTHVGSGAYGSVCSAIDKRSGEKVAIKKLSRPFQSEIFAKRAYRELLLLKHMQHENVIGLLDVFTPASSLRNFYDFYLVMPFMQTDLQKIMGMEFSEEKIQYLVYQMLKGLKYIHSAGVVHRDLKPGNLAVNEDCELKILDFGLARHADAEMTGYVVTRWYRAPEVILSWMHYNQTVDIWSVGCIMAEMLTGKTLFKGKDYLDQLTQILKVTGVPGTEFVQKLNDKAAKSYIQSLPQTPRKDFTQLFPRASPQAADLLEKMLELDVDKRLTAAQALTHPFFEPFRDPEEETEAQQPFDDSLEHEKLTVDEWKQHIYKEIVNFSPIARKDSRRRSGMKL
From the text: as §1

PDK1 = molecular target: T3, PDK1 (Homo sapiens, UniProt O15530); assay: Kinase profiling PDK1; type: biochemical
T3 sequence (O15530 1-556): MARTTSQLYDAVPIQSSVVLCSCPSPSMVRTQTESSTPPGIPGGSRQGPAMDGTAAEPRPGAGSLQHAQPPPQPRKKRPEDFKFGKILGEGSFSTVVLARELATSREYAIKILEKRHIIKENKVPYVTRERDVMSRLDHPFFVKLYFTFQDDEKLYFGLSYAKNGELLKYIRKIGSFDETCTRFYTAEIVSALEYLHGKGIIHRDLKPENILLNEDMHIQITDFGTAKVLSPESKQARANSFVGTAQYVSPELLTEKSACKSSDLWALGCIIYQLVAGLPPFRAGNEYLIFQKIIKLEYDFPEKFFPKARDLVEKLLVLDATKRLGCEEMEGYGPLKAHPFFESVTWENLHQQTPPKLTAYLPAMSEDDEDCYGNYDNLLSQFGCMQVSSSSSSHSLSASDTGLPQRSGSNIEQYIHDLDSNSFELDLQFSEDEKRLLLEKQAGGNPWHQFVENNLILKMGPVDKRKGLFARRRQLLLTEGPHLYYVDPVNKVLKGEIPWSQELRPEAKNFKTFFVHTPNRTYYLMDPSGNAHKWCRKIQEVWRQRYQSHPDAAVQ
From the text: as §1

PKBa = PKBa (Homo sapiens, UniProt P31749); assay: Kinase profiling PKBa; type: biochemical
From the text: as §1

S6K1 = S6K1 (Homo sapiens, UniProt P23443); assay: Kinase profiling S6K1; type: biochemical
From the text: as §1

PKCγ = PKCγ (Homo sapiens, UniProt P05129); assay: Kinase profiling PKCγ; type: biochemical
From the text: as §1

MSK1 = MSK1 (Homo sapiens, UniProt O75582); assay: Kinase profiling MSK1; type: biochemical
From the text: as §1

CAMK1 = CAMK1 (Homo sapiens, UniProt Q14012); assay: Kinase profiling CAMK1; type: biochemical
From the text: as §1

PLK1 = PLK1 (Homo sapiens, UniProt P53350); assay: Kinase profiling PLK1; type: biochemical
From the text: as §1

AMPK (hum) = assay: Kinase profiling AMPK (hum); type: biochemical, human
From the text: as §1

NEK6 = NEK6 (Homo sapiens, UniProt Q9HC98); assay: Kinase profiling NEK6; type: biochemical
From the text: as §1

PIM1 = PIM1 (Homo sapiens, UniProt P11309); assay: Kinase profiling PIM1; type: biochemical
From the text: as §1

SRPK1 = SRPK1 (Homo sapiens, UniProt Q96SB4); assay: Kinase profiling SRPK1; type: biochemical
From the text: as §1

HIPK2 = HIPK2 (Homo sapiens, UniProt Q9H2X6); assay: Kinase profiling HIPK2; type: biochemical
From the text: as §1

MLK3 = MLK3 (Homo sapiens, UniProt Q16584); assay: Kinase profiling MLK3; type: biochemical
From the text: as §1

TAK1 = molecular target: T4, TAK1 (Homo sapiens, UniProt O43318); assay: Kinase profiling TAK1; type: biochemical
T4 sequence (O43318 1-303 limits assumed): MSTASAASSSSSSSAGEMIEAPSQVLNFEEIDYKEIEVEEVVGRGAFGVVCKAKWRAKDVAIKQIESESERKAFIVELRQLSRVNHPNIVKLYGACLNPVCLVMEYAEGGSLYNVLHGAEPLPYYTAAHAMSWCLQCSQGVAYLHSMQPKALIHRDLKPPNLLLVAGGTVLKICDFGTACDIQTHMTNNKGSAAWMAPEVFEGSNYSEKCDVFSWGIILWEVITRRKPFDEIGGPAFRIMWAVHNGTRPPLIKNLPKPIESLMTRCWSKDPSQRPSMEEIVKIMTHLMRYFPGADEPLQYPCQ
T4 sequence (Q15750 437-504 partner limits assumed): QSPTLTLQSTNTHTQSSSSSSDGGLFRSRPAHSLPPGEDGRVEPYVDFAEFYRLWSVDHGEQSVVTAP
From the text: as §1

JAK2 = JAK2 (Homo sapiens, UniProt O60674); assay: Kinase profiling JAK2; type: biochemical
From the text: as §1

HER4 = HER4 (Homo sapiens, UniProt Q15303); assay: Kinase profiling HER4; type: biochemical
From the text: as §1

TrkA = TrkA (Homo sapiens, UniProt P04629); assay: Kinase profiling TrkA; type: biochemical
From the text: as §1

TrkA, sequence (P04629 33-796, species assumed): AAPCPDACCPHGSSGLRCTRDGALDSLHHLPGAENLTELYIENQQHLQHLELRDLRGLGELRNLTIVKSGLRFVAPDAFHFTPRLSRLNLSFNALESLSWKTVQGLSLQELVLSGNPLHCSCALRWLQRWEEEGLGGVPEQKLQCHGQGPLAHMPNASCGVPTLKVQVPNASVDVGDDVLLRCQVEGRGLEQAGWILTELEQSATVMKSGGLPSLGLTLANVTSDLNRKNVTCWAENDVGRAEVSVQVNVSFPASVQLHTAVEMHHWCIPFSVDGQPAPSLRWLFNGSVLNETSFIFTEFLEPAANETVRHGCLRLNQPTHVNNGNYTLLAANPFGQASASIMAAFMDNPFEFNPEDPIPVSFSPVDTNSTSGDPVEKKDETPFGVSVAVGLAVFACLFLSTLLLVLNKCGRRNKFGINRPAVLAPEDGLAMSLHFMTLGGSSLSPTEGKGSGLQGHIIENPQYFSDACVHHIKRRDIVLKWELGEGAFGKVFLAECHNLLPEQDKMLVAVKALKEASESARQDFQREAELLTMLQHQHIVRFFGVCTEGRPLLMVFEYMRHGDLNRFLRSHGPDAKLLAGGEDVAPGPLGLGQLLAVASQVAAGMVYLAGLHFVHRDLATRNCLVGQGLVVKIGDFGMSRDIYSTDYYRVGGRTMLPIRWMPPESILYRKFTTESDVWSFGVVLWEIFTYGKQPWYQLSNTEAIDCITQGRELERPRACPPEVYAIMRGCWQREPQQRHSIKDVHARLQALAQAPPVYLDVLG
SRPK1, sequence (Q96SB4 whole entry, species assumed): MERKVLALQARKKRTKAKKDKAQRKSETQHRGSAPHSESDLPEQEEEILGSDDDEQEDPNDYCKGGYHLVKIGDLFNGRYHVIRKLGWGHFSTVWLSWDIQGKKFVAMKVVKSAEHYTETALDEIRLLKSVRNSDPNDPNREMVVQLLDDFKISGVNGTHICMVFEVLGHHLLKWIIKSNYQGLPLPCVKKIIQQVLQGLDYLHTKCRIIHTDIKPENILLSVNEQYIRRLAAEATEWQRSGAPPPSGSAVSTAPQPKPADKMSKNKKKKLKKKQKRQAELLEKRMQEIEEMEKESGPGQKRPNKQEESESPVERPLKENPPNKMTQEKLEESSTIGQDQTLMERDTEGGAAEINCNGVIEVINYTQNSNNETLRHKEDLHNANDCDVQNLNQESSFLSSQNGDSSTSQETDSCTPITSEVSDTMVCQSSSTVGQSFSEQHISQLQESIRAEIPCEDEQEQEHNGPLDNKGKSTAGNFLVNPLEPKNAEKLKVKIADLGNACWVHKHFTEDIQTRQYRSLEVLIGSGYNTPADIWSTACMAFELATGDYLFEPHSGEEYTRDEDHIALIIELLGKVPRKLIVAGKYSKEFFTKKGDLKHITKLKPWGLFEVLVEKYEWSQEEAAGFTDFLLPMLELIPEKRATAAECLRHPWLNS
MSK1, sequence (O75582 whole entry, species assumed): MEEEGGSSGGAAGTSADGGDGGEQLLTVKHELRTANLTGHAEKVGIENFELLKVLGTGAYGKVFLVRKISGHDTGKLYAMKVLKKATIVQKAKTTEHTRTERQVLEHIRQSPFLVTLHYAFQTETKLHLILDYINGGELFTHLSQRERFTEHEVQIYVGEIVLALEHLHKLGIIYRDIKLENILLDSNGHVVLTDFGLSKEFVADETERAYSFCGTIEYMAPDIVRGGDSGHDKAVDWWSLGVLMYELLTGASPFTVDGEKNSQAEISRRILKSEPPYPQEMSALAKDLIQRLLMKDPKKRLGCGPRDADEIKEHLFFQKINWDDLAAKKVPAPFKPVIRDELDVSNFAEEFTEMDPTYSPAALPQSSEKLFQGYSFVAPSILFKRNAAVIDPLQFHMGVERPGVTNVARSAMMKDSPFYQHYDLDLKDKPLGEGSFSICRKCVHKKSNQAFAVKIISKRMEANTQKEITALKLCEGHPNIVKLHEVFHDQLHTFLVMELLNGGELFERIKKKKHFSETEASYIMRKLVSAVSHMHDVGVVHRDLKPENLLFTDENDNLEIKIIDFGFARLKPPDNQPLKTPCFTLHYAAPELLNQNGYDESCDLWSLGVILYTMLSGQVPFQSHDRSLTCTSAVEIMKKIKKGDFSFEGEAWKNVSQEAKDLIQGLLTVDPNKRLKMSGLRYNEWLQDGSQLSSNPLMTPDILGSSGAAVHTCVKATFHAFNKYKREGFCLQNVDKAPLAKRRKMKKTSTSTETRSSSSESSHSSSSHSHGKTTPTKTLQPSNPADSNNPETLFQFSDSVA
JNK1, sequence (P45983 whole entry, species assumed): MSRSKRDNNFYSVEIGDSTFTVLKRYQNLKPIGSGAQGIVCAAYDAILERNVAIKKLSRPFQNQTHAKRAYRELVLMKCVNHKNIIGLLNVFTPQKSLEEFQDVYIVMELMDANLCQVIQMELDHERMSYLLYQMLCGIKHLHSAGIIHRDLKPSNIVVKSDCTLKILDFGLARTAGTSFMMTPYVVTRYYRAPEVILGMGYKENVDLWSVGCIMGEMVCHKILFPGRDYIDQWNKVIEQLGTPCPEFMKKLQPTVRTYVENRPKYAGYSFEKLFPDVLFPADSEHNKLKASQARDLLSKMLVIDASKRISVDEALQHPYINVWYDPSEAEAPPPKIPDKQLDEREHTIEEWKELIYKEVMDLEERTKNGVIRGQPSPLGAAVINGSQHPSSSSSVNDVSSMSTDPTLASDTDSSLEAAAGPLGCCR
MLK3, sequence (Q16584 whole entry, species assumed): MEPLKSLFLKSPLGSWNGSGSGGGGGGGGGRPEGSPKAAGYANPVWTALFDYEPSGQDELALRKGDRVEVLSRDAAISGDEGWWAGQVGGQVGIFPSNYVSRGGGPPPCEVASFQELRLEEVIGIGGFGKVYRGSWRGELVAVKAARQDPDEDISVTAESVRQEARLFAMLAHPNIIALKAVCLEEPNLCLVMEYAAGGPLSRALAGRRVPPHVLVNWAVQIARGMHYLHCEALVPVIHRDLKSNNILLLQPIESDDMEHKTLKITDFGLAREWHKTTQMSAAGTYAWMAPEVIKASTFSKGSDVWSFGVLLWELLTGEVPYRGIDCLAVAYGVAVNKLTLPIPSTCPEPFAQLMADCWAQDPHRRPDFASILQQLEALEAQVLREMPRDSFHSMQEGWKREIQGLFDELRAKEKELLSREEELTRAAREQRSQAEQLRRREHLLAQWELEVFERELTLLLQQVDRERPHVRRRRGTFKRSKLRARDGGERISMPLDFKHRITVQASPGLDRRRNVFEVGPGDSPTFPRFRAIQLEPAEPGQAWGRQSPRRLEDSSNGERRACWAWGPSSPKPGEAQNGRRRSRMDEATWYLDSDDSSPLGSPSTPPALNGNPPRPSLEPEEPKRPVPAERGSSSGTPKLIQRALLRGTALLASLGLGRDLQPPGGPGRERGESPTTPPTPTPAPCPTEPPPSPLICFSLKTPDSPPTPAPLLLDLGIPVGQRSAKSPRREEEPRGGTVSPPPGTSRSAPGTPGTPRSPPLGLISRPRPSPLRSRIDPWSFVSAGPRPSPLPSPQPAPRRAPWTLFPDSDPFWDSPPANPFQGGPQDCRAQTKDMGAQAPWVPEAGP
S6K1, sequence (P23443 whole entry, species assumed): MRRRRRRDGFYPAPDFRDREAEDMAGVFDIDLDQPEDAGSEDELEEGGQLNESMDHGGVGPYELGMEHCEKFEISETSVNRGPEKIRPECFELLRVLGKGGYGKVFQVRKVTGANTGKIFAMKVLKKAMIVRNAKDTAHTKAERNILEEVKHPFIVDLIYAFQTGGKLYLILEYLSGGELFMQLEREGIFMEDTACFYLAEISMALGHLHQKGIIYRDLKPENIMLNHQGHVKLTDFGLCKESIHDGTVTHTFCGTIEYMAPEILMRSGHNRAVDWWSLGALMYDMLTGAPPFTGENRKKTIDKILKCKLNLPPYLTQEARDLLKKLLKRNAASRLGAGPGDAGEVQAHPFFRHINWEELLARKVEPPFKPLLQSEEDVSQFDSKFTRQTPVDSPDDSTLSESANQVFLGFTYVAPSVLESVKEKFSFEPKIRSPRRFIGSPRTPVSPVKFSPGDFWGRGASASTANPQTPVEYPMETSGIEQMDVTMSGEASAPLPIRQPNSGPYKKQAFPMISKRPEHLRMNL
PKBa, sequence (P31749 whole entry): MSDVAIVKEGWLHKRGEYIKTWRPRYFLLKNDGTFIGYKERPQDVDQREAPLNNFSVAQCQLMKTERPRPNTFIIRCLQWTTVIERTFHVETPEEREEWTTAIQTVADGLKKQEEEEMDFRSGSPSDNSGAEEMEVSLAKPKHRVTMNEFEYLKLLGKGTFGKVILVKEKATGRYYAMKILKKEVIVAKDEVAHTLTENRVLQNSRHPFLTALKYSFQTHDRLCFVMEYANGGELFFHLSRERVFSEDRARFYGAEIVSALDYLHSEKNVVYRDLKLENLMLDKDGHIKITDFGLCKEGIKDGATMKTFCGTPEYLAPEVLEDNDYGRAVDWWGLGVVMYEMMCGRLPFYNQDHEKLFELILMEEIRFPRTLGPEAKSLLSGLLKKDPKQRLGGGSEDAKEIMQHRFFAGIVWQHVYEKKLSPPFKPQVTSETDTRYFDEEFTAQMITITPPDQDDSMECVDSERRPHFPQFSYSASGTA
NEK6, sequence (Q9HC98 whole entry, species assumed): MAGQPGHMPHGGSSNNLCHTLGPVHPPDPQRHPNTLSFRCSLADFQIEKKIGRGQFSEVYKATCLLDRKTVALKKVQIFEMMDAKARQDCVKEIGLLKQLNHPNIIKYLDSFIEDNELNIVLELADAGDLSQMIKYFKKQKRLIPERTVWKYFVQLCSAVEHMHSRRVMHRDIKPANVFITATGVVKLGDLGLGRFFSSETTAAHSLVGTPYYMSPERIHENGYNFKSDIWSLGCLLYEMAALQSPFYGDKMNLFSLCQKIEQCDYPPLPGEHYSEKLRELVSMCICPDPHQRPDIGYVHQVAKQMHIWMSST

Row | Compound | residual kinase activity, MKK6 (MKK6) | residual kinase activity, ERK2 (ERK2) | residual kinase activity, JNK1 (JNK1) | residual kinase activity, JNK2 (JNK2) | residual kinase activity, p38d MAPK (p38d MAPK) | residual kinase activity, PDK1 (PDK1) | residual kinase activity, PKBa (PKBa) | residual kinase activity, S6K1 (S6K1) | residual kinase activity, PKCγ (PKCγ) | residual kinase activity, MSK1 (MSK1) | residual kinase activity, CAMK1 (CAMK1) | residual kinase activity, PLK1 (PLK1) | residual kinase activity, AMPK (hum) (AMPK (hum)) | residual kinase activity, NEK6 (NEK6) | residual kinase activity, PIM1 (PIM1) | residual kinase activity, SRPK1 (SRPK1) | residual kinase activity, HIPK2 (HIPK2) | residual kinase activity, MLK3 (MLK3) | residual kinase activity, TAK1 (TAK1) | residual kinase activity, JAK2 (JAK2) | other results
1 | O=C(Nc1nc2ccc(O)cc2s1)c1ccccn1 [Compound 03-12] | 99 | 88 | 105 | 101 | 77 | 88 | 74 | 50 | 143 | 90 | 47 | 65 | 90 | 98 | 51 | 63 | 18 | 46 | 33 | 71 | residual kinase activity, HER4 (HER4): 33; residual kinase activity, TrkA (TrkA): 49
2 | O=C(Nc1nc2cc(O)ccc2s1)c1ccccn1 [Compound 03-13] | 105 | 100 | 93 | 103 | 99 | 104 | 107 | 71 | 141 | 100 | 111 | 96 | 71 | 107 | 39 | 57 | 43 | 57 | 34 | 98 | residual kinase activity, HER4 (HER4): 98; residual kinase activity, TrkA (TrkA): 57
